Results published in patent US20080009418A1, “Selective Inhibitors” (Alchemia LTD., priority 2004, published 2008).

What was measured:
[1] = molecular target: T1, Human δ-opioid (DOP) (Homo sapiens, UniProt P41143); assay: Radioligand binding, human δ-opioid (DOP) membranes, FlashPlate, [3H]-Bremazocine; settings: compound at 10 μM, [3H]-Bremazocine
T1 construct: purchased Perkin Elmer Biosignal
Procedure, shortened: (§1)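 Cloned human receptor membranes were coated onto FlashPlate wells and incubated with radioligand and compound (added from a 0.5 mM DMSO daughter plate) for 1 hour at room temperature in the dark. Scintillation counting gave percent inhibition, with DMSO defining total and reference ligand defining non-specific binding.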

[2] = molecular target: T2, Human κ-Opioid (KOP) (Homo sapiens, UniProt P41145); assay: Radioligand binding, human κ-opioid (KOP) membranes, filtration, [3H]-Diprenorphine; settings: compound at 10 μM, [3H]-Diprenorphine
T2 construct: purchased Perkin Elmer Biosignal
Procedure, shortened: (§2)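 Percent inhibition of radioligand binding measured on recombinant human membranes: NK1 with [125I]-Substance P, KOP with [3H]-Diprenorphine. Incubation 1 h at room temperature, then harvest onto 0.3% PEI-soaked filters, cold Tris-HCl pH 7.4 washes and scintillation counting; non-specific binding from reference ligand wells.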

[3] = molecular target: T3, Human Melanocortin (MC3) (Homo sapiens, UniProt P41968); assay: Radioligand binding, human melanocortin MC3 membranes, FlashPlate, [125I]-NDP-αMSH; settings: compound at 10 μM, [125I]-NDP-αMSH
T3 construct: purchased Perkin Elmer Biosignal
Procedure, shortened: as §1

[4] = molecular target: T4, Human Melanocortin (MC4) (Homo sapiens, UniProt P32245); assay: Radioligand binding, human melanocortin MC4 membranes, FlashPlate, [125I]-NDP-αMSH; settings: compound at 10 μM, [125I]-NDP-αMSH
T4 construct: purchased Perkin Elmer Biosignal
Procedure, shortened: as §1

[5] = molecular target: T5, Human melanocortin (MC5) (Homo sapiens, UniProt P33032); assay: Radioligand binding, human melanocortin MC5 membranes, FlashPlate, [125I]-NDP-αMSH; settings: compound at 10 μM, [125I]-NDP-αMSH
T5 construct: purchased Perkin Elmer Biosignal
Procedure, shortened: as §1

[6] = molecular target: T6, Human melanin-concentrating hormone (MCH1) (Homo sapiens, UniProt Q99705); assay: Radioligand binding, human melanin-concentrating hormone MCH1 membranes, FlashPlate, [125I]-S36057; settings: compound at 10 μM; for A6: inhibition of radioligand binding, human melanin-concentrating hormone (MCH1): [125I]-S36057
T6 construct: purchased Perkin Elmer Biosignal
Procedure, shortened: as §1

[7] = molecular target: T7, Human μ-opioid (MOP) (Homo sapiens, UniProt P35372); assay: Radioligand binding, human μ-opioid (MOP) membranes, FlashPlate, [3H]-Naloxone; settings: compound at 10 μM, [3H]-Naloxone
T7 construct: purchased Perkin Elmer Biosignal
Procedure, shortened: as §1

[8] = molecular target: T8, Human neurokinin (NK1) (Homo sapiens, UniProt P25103); assay: Radioligand binding, human neurokinin NK1 membranes, filtration, [125I]-Substance P; settings: compound at 10 μM, [125I]-Substance P
T8 construct: purchased Perkin Elmer Biosignal
Procedure, shortened: as §2

[9] = molecular target: T9, Human neuropeptide Y (NPY-Y1) (Homo sapiens, UniProt P25929); assay: Radioligand binding, human neuropeptide Y NPY-Y1 membranes, FlashPlate, [125I]-PYY; settings: compound at 10 μM, [125I]-PYY
T9 construct: purchased Perkin Elmer Biosignal
T9 sequence (P25929 1-384): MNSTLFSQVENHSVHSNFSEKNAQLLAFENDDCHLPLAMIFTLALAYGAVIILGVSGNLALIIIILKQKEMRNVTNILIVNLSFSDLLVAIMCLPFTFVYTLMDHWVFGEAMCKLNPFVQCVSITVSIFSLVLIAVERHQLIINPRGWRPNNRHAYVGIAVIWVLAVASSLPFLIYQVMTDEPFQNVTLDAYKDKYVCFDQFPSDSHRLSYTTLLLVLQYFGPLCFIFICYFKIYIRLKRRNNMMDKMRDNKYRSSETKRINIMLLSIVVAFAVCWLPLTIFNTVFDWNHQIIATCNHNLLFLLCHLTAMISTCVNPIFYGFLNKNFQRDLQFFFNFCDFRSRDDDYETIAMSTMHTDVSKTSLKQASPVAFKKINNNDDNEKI
Procedure, shortened: as §1

[10] = molecular target: T10, Human opioid (ORL1) (Homo sapiens, UniProt P41146); assay: Radioligand binding, human opioid ORL1 membranes, FlashPlate, [125I]-Nociceptin; settings: compound at 10 μM, [125I]-Nociceptin
T10 construct: purchased Perkin Elmer Biosignal
Procedure, shortened: as §1

[11] = molecular target: T11, Mouse urotensin (mUR2) (Mus musculus, UniProt Q8VIH9); assay: Radioligand binding, mouse urotensin mUR2 membranes, FlashPlate, [125I]-Urotensin II; settings: compound at 10 μM, [125I]-Urotensin II
T11 construct: purchased Perkin Elmer Biosignal
T11 sequence (Q8VIH9 1-385): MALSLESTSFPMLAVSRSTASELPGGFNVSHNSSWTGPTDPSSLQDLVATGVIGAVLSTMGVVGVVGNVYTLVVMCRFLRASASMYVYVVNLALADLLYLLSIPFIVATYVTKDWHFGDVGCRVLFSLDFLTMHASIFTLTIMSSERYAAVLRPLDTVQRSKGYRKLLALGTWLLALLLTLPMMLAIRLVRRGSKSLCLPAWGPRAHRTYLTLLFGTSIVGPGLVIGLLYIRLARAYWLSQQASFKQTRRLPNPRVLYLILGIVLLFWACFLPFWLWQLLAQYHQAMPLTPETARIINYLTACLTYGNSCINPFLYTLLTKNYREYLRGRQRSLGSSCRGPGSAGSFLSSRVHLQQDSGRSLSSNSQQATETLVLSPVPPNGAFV
Procedure, shortened: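 Cloned mouse urotensin (mUR2) receptor membranes from Perkin Elmer Biosignal were immobilized in FlashPlate microplates using a proprietary coating. Each well got 19.5 μl buffer, then 0.5 μl of DMSO, reference ligand, or compound. Adding 5 μl of [125I]-Urotensin II, diluted to 5× final concentration in binding buffer, started binding. Plates were sealed with TopSeal-A and incubated 1 hour at room temperature in the dark. Wells were counted for 30 seconds each on a TopCount after a 60-second delay, and percentage inhibition was calculated.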

T8 sequence (P25103 whole entry): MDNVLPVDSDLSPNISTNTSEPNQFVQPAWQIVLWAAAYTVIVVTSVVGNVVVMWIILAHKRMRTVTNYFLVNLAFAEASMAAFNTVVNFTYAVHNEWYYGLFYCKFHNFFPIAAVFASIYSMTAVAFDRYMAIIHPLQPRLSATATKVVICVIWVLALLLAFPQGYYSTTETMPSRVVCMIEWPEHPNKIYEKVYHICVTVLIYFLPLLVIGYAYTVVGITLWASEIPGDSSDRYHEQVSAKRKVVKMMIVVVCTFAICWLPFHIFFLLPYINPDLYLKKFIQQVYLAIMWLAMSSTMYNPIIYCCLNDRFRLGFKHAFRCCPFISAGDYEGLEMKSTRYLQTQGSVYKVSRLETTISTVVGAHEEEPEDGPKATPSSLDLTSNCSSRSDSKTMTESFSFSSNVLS
T6 sequence (Q99705 whole entry): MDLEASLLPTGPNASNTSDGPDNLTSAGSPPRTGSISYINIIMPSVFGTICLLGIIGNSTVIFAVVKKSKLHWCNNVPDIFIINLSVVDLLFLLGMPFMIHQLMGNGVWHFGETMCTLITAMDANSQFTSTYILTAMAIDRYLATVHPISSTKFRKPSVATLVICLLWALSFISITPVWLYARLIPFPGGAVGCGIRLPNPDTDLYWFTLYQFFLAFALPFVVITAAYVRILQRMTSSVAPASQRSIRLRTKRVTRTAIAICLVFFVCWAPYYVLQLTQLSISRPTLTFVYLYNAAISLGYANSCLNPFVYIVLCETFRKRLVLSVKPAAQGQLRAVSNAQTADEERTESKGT
T2 sequence (P41145 whole entry): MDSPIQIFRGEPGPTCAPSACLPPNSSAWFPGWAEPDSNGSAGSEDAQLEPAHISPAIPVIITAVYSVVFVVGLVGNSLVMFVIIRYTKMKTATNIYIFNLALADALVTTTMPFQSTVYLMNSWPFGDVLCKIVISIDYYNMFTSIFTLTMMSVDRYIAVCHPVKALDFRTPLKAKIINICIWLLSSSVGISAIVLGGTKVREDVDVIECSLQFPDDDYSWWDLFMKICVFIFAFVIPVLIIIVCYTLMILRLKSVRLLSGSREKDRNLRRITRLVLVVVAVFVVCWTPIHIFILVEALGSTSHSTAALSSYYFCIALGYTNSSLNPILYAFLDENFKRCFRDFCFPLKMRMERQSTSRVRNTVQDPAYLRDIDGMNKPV
T3 sequence (P41968 whole entry): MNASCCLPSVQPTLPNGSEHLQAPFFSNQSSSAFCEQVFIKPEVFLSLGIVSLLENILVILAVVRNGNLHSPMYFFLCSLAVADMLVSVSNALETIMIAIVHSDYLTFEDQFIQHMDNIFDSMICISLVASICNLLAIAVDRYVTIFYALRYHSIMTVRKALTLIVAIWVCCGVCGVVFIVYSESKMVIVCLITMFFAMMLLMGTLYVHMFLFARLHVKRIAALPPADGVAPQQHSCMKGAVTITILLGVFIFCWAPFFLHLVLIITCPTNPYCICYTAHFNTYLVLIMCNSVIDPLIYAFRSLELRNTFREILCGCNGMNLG
T5 sequence (P33032 whole entry): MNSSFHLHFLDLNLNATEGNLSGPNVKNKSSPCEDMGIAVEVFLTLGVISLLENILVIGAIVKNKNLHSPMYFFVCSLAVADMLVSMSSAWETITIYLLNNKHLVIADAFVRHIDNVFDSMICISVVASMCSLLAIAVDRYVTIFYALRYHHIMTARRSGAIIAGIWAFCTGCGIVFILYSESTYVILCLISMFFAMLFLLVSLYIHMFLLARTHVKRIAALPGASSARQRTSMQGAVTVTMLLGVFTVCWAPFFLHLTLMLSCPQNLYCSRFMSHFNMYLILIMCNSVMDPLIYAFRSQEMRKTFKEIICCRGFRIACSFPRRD
T1 sequence (P41143 whole entry): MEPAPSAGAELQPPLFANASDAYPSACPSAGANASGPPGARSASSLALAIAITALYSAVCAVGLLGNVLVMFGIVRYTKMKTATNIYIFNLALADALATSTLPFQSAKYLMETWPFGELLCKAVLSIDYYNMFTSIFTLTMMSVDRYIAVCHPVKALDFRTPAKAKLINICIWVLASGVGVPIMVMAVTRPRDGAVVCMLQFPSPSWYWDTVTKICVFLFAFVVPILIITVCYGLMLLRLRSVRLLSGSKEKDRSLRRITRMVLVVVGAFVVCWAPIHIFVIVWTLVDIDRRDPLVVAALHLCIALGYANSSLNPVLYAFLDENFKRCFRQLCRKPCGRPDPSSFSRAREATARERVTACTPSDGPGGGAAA
T7 sequence (P35372 whole entry): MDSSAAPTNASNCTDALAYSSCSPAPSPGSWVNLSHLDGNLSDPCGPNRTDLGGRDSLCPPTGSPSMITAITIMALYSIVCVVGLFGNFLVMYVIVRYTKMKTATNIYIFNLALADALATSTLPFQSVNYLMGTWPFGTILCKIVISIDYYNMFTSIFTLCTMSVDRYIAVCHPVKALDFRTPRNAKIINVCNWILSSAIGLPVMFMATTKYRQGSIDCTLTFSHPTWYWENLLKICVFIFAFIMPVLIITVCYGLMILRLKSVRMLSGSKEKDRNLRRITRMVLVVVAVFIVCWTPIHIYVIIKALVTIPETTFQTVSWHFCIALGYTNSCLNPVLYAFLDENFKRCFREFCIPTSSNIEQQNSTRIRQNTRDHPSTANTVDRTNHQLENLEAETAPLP
T10 sequence (P41146 whole entry): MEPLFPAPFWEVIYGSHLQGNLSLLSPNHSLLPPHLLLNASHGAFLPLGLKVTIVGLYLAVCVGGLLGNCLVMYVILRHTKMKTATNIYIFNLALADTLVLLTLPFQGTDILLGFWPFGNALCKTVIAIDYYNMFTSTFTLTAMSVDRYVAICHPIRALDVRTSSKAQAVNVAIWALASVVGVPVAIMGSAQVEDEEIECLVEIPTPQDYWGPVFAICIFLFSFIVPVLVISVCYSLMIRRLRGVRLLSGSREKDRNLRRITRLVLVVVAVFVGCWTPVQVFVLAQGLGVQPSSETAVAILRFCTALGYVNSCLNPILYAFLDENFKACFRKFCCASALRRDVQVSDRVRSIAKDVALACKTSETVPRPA
T4 sequence (P32245 whole entry): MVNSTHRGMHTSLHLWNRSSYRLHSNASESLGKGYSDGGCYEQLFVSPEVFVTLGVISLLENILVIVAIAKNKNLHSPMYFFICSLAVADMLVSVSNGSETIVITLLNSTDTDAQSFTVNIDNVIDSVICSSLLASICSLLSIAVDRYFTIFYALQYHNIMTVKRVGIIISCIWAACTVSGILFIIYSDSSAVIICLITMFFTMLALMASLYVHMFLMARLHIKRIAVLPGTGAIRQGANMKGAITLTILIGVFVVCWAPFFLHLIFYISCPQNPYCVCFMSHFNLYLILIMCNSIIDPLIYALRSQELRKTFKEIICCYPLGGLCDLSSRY

With `CSC1O[C@H](COCc2ccc(Cl)cc2)[C@@H](O)[C@@H](OCc2ccc(Cl)cc2)[C@H]1NC(=O)CCCNC(=N)N` (stereo partly drawn) [compound 274] the “A1: inhibition of radioligand binding” value ([1]; FlashPlate) was “− (“−” indicates less than 50% inhibition at 10 μM)”, the “A2: inhibition of radioligand binding” value ([2]; filtration) was “− (“−” indicates less than 50% inhibition at 10 μM)” and the “A3: inhibition of radioligand binding” value ([3]; FlashPlate) was “− (“−” indicates less than 50% inhibition at 10 μM)”. For the same molecule, the “A4: inhibition of radioligand binding” value ([4]; FlashPlate) was “− (“−” indicates less than 50% inhibition at 10 μM)”, the “A5: inhibition of radioligand binding” value ([5]; FlashPlate) was “− (“−” indicates less than 50% inhibition at 10 μM)” and the “A6: inhibition of radioligand binding” value ([6]; [125I]-S36057, FlashPlate) was “− (“−” indicates less than 50% inhibition at 10 μM)”. For the same molecule, the “A7: inhibition of radioligand binding” value ([7]; FlashPlate) was “− (“−” indicates less than 50% inhibition at 10 μM)”, the “A8: inhibition of radioligand binding” value ([8]; filtration) was “+ (“+” indicates greater than 50% inhibition at 10 μM)” and the “A9: inhibition of radioligand binding” value ([9]; FlashPlate) was “− (“−” indicates less than 50% inhibition at 10 μM)”. The “A10: inhibition of radioligand binding” value ([10]; FlashPlate) was “− (“−” indicates less than 50% inhibition at 10 μM)” and the “A11: inhibition of radioligand binding” value ([11]; FlashPlate) was “− (“−” indicates less than 50% inhibition at 10 μM)”.

For `NCCC(=O)NC1C(OCc2ccccc2)OC(COCc2ccccc2)C(O)C1OCc1ccccc1` (stereo not drawn) [compound 370], the “A1: inhibition of radioligand binding, human δ-opioid (DOP)” value [1] was “− (“−” indicates less than 50% inhibition at 10 μM)”, the “A2: inhibition of radioligand binding, human κ-opioid (KOP)” value [2] was “− (“−” indicates less than 50% inhibition at 10 μM)” and the “A3: inhibition of radioligand binding, human melanocortin (MC3)” value [3] was “− (“−” indicates less than 50% inhibition at 10 μM)”. For the same molecule, the “A4: inhibition of radioligand binding, human melanocortin (MC4)” value [4] was “− (“−” indicates less than 50% inhibition at 10 μM)”, the “A5: inhibition of radioligand binding, human melanocortin (MC5)” value [5] was “− (“−” indicates less than 50% inhibition at 10 μM)” and the “A6: inhibition of radioligand binding, human melanin-concentrating hormone (MCH1)” value [6] was “− (“−” indicates less than 50% inhibition at 10 μM)”. For the same molecule, the “A7: inhibition of radioligand binding, human μ-opioid (MOP)” value [7] was “− (“−” indicates less than 50% inhibition at 10 μM)”, the “A8: inhibition of radioligand binding, human neurokinin (NK1)” value [8] was “+ (“+” indicates greater than 50% inhibition at 10 μM)” and the “A9: inhibition of radioligand binding, human neuropeptide Y (NPY-Y1)” value [9] was “− (“−” indicates less than 50% inhibition at 10 μM)”. The “A10: inhibition of radioligand binding, human opioid (ORL1)” value [10] was “− (“−” indicates less than 50% inhibition at 10 μM)” and the “A11: inhibition of radioligand binding, mouse urotensin (mUR2)” value [11] was “− (“−” indicates less than 50% inhibition at 10 μM)”.

`CSC1OC(COCc2cccc(N)c2)C(O)C(OCc2ccccc2)C1NC(=O)Cc1ccccc1` (stereo not drawn) [compound 330] was tested, and the “A1: inhibition of radioligand binding, human δ-opioid (DOP)” value [1] was “− (“−” indicates less than 50% inhibition at 10 μM)”, the “A2: inhibition of radioligand binding, human κ-opioid (KOP)” value [2] was “− (“−” indicates less than 50% inhibition at 10 μM)” and the “A3: inhibition of radioligand binding, human melanocortin (MC3)” value [3] was “− (“−” indicates less than 50% inhibition at 10 μM)”. For the same molecule, the “A4: inhibition of radioligand binding, human melanocortin (MC4)” value [4] was “− (“−” indicates less than 50% inhibition at 10 μM)”, the “A5: inhibition of radioligand binding, human melanocortin (MC5)” value ([5]; 10 µM) was “− (“−” indicates less than 50% inhibition at 10 μM)” and the “A6: inhibition of radioligand binding, human melanin-concentrating hormone (MCH1)” value [6] was “− (“−” indicates less than 50% inhibition at 10 μM)”. The “A7: inhibition of radioligand binding, human μ-opioid (MOP)” value [7] was “− (“−” indicates less than 50% inhibition at 10 μM)”, the “A8: inhibition of radioligand binding, human neurokinin (NK1)” value [8] was “+ (“+” indicates greater than 50% inhibition at 10 μM)” and the “A9: inhibition of radioligand binding, human neuropeptide Y (NPY-Y1)” value [9] was “− (“−” indicates less than 50% inhibition at 10 μM)”. For the same molecule, the “A10: inhibition of radioligand binding, human opioid (ORL1)” value [10] was “− (“−” indicates less than 50% inhibition at 10 μM)” and the “A11: inhibition of radioligand binding, mouse urotensin (mUR2)” value [11] was “− (“−” indicates less than 50% inhibition at 10 μM)”.
